Laboratory results: ChEMBL document CHEMBL1201862, “PubChem BioAssay data set” (2004)
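Test compounds were applied to cells in 96-well plates for 48 hours at 5 doses. GI50 marks 50% less growth.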 Activity calls are given as the source filed them. Rule as the data show it: active = GI50 up to about 1.1 µM and inactive = higher.

What was measured:
Experiment in all cases: NCI tumour cell line growth inhibition, 48 h
786-0 = tested on: 786-0
ACHN = tested on: ACHN
HCT-15 = tested on: HCT-15
HOP-62 = tested on: HOP-62
K562 = tested on: K562
KM12 = tested on: KM12
M19-MEL = tested on: M19-MEL
MOLT-4 = tested on: MOLT-4
NCI-H460 = tested on: NCI-H460
OVCAR-3 = tested on: OVCAR-3
OVCAR-8 = tested on: OVCAR-8
SK-MEL-2 = tested on: SK-MEL-2
SNB-78 = tested on: SNB-78
SR = tested on: SR
UO-31 = tested on: UO-31
HL-60 = tested on: HL-60
NCI-H226 = tested on: NCI-H226

SMILES	GI50 (786-0)	GI50 (ACHN)	GI50 (HCT-15)	GI50 (HOP-62)	GI50 (K562)	GI50 (KM12)	GI50 (M19-MEL)	GI50 (MOLT-4)	GI50 (NCI-H460)	GI50 (OVCAR-3)	GI50 (OVCAR-8)	GI50 (SK-MEL-2)	GI50 (SNB-78)	GI50 (SR)	GI50 (UO-31)	GI50 (HL-60)	GI50 (NCI-H226)
CC1=C(O)C(=O)C2C(=O)C1C(C)C2c1ccc(C)cc1 (stereo not drawn)	> 100 µM (inactive)	> 100 µM (inactive)	> 100 µM	> 100 µM (inactive)	> 100 µM (inactive)	> 100 µM (inactive)	> 100 µM (inactive)	> 100 µM (inactive)	> 100 µM (inactive)	> 100 µM (inactive)	> 100 µM (inactive)	> 100 µM (inactive)	> 100 µM (inactive)	> 100 µM (inactive)	> 100 µM (inactive)	–	–
O=c1[nH]c2cc(-c3ccccc3)nc-2nn1-c1c(Cl)cc(Cl)cc1Cl	30.8 µM (inactive)	–	36 µM	25.5 µM (inactive)	41.1 µM (inactive)	20.5 µM (inactive)	22.8 µM (inactive)	22.5 µM (inactive)	30.4 µM (inactive)	23.2 µM (inactive)	37.4 µM (inactive)	26.5 µM (inactive)	37.5 µM (inactive)	23.7 µM (inactive)	22.3 µM (inactive)	20.5 µM (inactive)	23.7 µM (inactive)
COCCCNC(=O)C1C(=O)C(=O)N(CCCOC)C1=O (stereo not drawn)	> 100 µM (inactive)	> 100 µM (inactive)	> 100 µM	> 100 µM (inactive)	> 100 µM (inactive)	–	> 100 µM (inactive)	> 100 µM (inactive)	–	> 100 µM (inactive)	> 100 µM (inactive)	> 100 µM (inactive)	> 100 µM (inactive)	> 100 µM (inactive)	> 100 µM (inactive)	> 100 µM (inactive)	> 100 µM (inactive)
Cc1nc(-n2nc(-c3ccccc3)cc2-c2ccccc2)sc1C(/C=C/c1ccc([N+](=O)[O-])cc1)=N/NC(=O)c1ccncc1	13.5 µM (inactive)	23.6 µM (inactive)	14.7 µM	12.8 µM (inactive)	13.9 µM (inactive)	4.06 µM (inactive)	25.4 µM (inactive)	6.89 µM (inactive)	40 µM (inactive)	12.6 µM (inactive)	28.9 µM (inactive)	17.7 µM (inactive)	17.3 µM (inactive)	–	11.7 µM (inactive)	11 µM (inactive)	17.9 µM (inactive)
CCc1cccc(C(C)C)c1NC(=O)CC1Sc2ccccc2NC1=O (stereo not drawn)	80 µM (inactive)	51.6 µM (inactive)	47.9 µM	> 100 µM (inactive)	44.6 µM (inactive)	54.8 µM (inactive)	40.6 µM (inactive)	32.4 µM (inactive)	71.4 µM (inactive)	56 µM (inactive)	78 µM (inactive)	39.5 µM (inactive)	> 100 µM (inactive)	30.1 µM (inactive)	43.3 µM (inactive)	24 µM (inactive)	> 100 µM (inactive)
COc1ccc2c(c1)[n+]([O-])c(-c1nc3ccccc3s1)c(N)[n+]2[O-]	> 100 µM (inactive)	93.1 µM (inactive)	89.5 µM	> 100 µM (inactive)	64.4 µM (inactive)	> 100 µM (inactive)	49.7 µM (inactive)	43.8 µM (inactive)	47.3 µM (inactive)	78.7 µM (inactive)	> 100 µM (inactive)	> 100 µM (inactive)	> 100 µM (inactive)	59.6 µM (inactive)	34 µM (inactive)	39.4 µM (inactive)	> 100 µM (inactive)
CCOC(=O)c1cc(/C=C/C(C)=C/C(=O)OC)oc1C	> 100 µM (inactive)	> 100 µM (inactive)	> 100 µM	> 100 µM (inactive)	> 100 µM (inactive)	> 100 µM (inactive)	> 100 µM (inactive)	> 100 µM (inactive)	> 100 µM (inactive)	> 100 µM (inactive)	> 100 µM (inactive)	> 100 µM (inactive)	> 100 µM (inactive)	> 100 µM (inactive)	> 100 µM (inactive)	> 100 µM (inactive)	–
COC1(OC)CC2C=C(S(=O)(=O)c3ccccc3)C1N(Cc1ccccc1)C2=O (stereo not drawn)	39.4 µM (inactive)	41.3 µM (inactive)	–	97.7 µM (inactive)	35 µM (inactive)	24.7 µM (inactive)	32.4 µM (inactive)	23.2 µM (inactive)	29.3 µM (inactive)	17.1 µM (inactive)	23 µM (inactive)	–	21.2 µM (inactive)	28.9 µM (inactive)	35.5 µM (inactive)	16.2 µM (inactive)	29.9 µM (inactive)
CCc1cccc(C(C)C)c1NC(=O)C(=O)C(CC(=O)Nc1ccc(Cl)c(Cl)c1)C(=O)OC (stereo not drawn)	> 100 µM (inactive)	78 µM (inactive)	14.8 µM	35.2 µM (inactive)	10.9 µM (inactive)	43.7 µM (inactive)	52.5 µM (inactive)	> 100 µM (inactive)	85.7 µM (inactive)	> 100 µM (inactive)	> 100 µM (inactive)	> 100 µM (inactive)	> 100 µM (inactive)	> 100 µM (inactive)	37.8 µM (inactive)	> 100 µM (inactive)	> 100 µM (inactive)
COc1ccc(/C=c2\sc3nnc(CCC(=O)Nc4cccc(C(F)(F)F)c4)n3c2=O)cc1	> 71.8 µM (inactive)	> 100 µM (inactive)	> 100 µM	> 100 µM (inactive)	> 100 µM (inactive)	> 75.9 µM (inactive)	> 84.1 µM (inactive)	4.56 µM (inactive)	> 100 µM (inactive)	39.8 µM (inactive)	83.4 µM (inactive)	72.9 µM (inactive)	> 100 µM (inactive)	42.6 µM (inactive)	> 100 µM (inactive)	> 47.9 µM (inactive)	> 100 µM (inactive)
O=C1C=CC2(C=C1)C[C@H](NC(=O)C(F)(F)F)C(=O)O2	> 100 µM (inactive)	> 100 µM (inactive)	31.6 µM	> 100 µM (inactive)	20.4 µM (inactive)	73.5 µM (inactive)	23.6 µM (inactive)	20.4 µM (inactive)	> 100 µM (inactive)	> 100 µM (inactive)	37.2 µM (inactive)	–	> 100 µM (inactive)	37 µM (inactive)	> 100 µM (inactive)	14.2 µM (inactive)	> 100 µM (inactive)
Cc1ccc([Se][Se]c2ccc(C)cc2)cc1	18.6 µM (inactive)	25.3 µM (inactive)	9.35 µM	> 100 µM (inactive)	5.04 µM (inactive)	50.2 µM (inactive)	13.7 µM (inactive)	15.1 µM (inactive)	37.8 µM (inactive)	31.6 µM (inactive)	45.3 µM (inactive)	45.2 µM (inactive)	16.5 µM (inactive)	–	14.1 µM (inactive)	4.02 µM (inactive)	24.5 µM (inactive)
CCCc1c2c([nH]c(=O)c1C)C(=O)c1[nH]c(=O)c(C)c(CCC)c1C2=O	25.1 µM (inactive)	7.48 µM (inactive)	11.2 µM	> 100 µM (inactive)	17.4 µM (inactive)	–	2.21 µM (inactive)	3.93 µM (inactive)	14.5 µM (inactive)	1.46 µM (inactive)	4.47 µM (inactive)	–	30.3 µM (inactive)	5.56 µM (inactive)	56.4 µM (inactive)	3.65 µM (inactive)	77.3 µM (inactive)
O=C(CSc1nc(=O)c(-c2ccccc2NC(=O)C(F)(F)F)n[nH]1)NC(=O)Nc1ccccc1	> 100 µM (inactive)	–	> 100 µM	> 100 µM (inactive)	61.4 µM (inactive)	> 100 µM (inactive)	> 100 µM (inactive)	> 100 µM (inactive)	72.6 µM (inactive)	> 100 µM (inactive)	> 100 µM (inactive)	> 100 µM (inactive)	> 100 µM (inactive)	> 100 µM (inactive)	38.1 µM (inactive)	–	67.8 µM (inactive)
COc1cc(-c2cc(=O)c3c(O)c(OC)c(OC)c(OC)c3o2)ccc1O	29.8 µM (inactive)	21.4 µM (inactive)	7.74 µM	21.6 µM (inactive)	17.8 µM (inactive)	29.9 µM (inactive)	22.8 µM (inactive)	23.1 µM (inactive)	16.2 µM (inactive)	32.1 µM (inactive)	16.3 µM (inactive)	17.7 µM (inactive)	27.7 µM (inactive)	23 µM (inactive)	28.8 µM (inactive)	31.3 µM (inactive)	–
COc1cc(/C=C\c2ccc(Br)cc2)cc(OC)c1OC	0.00043 µM (active)	0.000794 µM (active)	0.00333 µM	0.01 µM (active)	0.000386 µM (active)	0.000612 µM (active)	0.00524 µM (active)	0.000662 µM (active)	0.01 µM (active)	0.000341 µM (active)	0.00161 µM (active)	0.00794 µM (active)	0.000305 µM (active)	0.01 µM (active)	0.00321 µM (active)	0.000318 µM (active)	0.0014 µM (active)
CC[C@@H](C(=O)[C@@H](C)[C@@H](O)[C@H](C)CCc1ccc(C)c(O)c1C(=O)O)[C@H]1O[C@](CC)([C@H]2CC[C@](O)(CC)[C@H](C)O2)C[C@@H]1C [LASALOCID A SODIUM]	2.9 µM (inactive)	2.64 µM (inactive)	3.19 µM	1.38 µM (inactive)	0.664 µM (active)	1.84 µM (inactive)	1.65 µM (inactive)	1.1 µM (active)	2.04 µM (inactive)	0.637 µM (active)	2.3 µM (inactive)	1.85 µM (inactive)	3.13 µM (inactive)	1.12 µM (inactive)	3.17 µM (inactive)	0.348 µM (active)	3.05 µM (inactive)
